Earlier results as cited in paper PMC3356383, “Efficacious Intermittent Dosing of a Novel JAK2 Inhibitor in Mouse Models of Polycythemia Vera” (PLoS ONE, 2012).

System: murine model of PV
Design: method as in PMID 18394554
Details: 42 days of continuous treatment; cited from earlier work

SMILES: Cc1cnc(Nc2ccc(OCCN3CCCC3)cc2)nc1Nc1cccc(S(=O)(=O)NC(C)(C)C)c1 [TG101348]
- Hematocrit reduction: 18%
